# Experimental data taken from publication PMC4123750 (Cell, 2014).
# T1: NtDRM MTase (Nicotiana tabacum, UniProt Q76KU6)
# T1 sequence (Q76KU6 255-608): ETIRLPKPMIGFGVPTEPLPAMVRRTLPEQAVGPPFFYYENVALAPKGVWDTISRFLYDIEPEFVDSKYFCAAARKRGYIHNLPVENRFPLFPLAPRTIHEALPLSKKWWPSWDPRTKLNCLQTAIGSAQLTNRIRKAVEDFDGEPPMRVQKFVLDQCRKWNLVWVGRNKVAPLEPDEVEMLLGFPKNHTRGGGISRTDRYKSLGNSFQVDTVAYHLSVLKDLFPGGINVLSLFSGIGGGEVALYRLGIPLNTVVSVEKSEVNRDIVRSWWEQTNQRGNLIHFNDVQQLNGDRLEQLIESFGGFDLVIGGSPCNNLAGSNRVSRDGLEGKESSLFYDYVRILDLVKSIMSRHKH
# B1: Nicotiana tabacum DRM methyltransferase domain (NtDRM MTase, residues 255-608) (domain or fragment, UniProt Q76KU6 255-608, looked up)
# chain: T1 sequence (Q76KU6 255-608)
# Key:
# NtDRM MTase = target: T1, NtDRM MTase; experiment: X-ray crystal structure, […] A; type: binding; settings: cofactor site; co-crystallised at protein:sinefungin molar ratio 1:3
# crystal structure = target: the molecule itself; experiment: crystal structure
Molecule,"X-ray crystal structure, 2.8 A (NtDRM MTase)",stoichiometry N (crystal structure)
Nc1ncnc2c1ncn2[C@@H]1O[C@H](C[C@@H](N)CC[C@H](N)C(=O)O)[C@@H](O)[C@H]1O [sinefungin],NtDRM MTase dimer with each molecule bound to a cofactor analog sinefungin in the active site,–
B1,–,2
